Measured values from patent US20240174637A1, “DEGRADERS OF GRK2 AND USES THEREOF” (Sonata Therapeutics, Inc., priority 2021, published 2024).

Columns and labels:
GRK2 [1] = molecular target: T1, GRK2 (Homo sapiens, UniProt P25098); assay: GRK2 Degradation Assay and Western Blot in PAXF1657 cells; type: cell-based; set-up: endogenous in cells; host or cells: PAXF1657; conditions: for inhibition at 0.3 µM: read-out: % GRK2 degradation at 0.3 uM in PAXF1657 EV (24 hrs); for inhibition at 1 µM: read-out: % GRK2 degradation at 1 uM in PAXF1657 EV (24 hrs); for inhibition at 3 µM: read-out: % GRK2 degradation at 3 uM in PAXF1657 EV (24 hrs)
T1 sequence (P25098 1-689): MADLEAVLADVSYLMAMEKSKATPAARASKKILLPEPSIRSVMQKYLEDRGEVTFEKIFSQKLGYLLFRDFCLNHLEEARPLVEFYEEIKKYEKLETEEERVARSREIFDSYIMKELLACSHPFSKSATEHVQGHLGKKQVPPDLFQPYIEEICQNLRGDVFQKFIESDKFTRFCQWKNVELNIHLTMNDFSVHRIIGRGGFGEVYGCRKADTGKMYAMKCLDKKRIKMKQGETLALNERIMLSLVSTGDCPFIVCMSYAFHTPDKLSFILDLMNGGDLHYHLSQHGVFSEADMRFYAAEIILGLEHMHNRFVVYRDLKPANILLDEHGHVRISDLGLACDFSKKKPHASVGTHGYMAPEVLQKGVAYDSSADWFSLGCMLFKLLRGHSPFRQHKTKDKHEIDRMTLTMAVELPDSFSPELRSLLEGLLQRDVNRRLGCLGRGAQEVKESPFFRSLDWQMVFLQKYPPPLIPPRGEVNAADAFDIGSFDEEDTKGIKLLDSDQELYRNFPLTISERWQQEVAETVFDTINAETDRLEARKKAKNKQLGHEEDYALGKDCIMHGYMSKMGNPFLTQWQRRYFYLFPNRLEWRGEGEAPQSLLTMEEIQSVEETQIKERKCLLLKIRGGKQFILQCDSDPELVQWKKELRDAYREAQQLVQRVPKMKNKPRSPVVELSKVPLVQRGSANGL
Outline: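 PAXF1657 cells grown to 70% confluency, then treated with compounds at 0–10 μM for 6 to 24 h at 37 °C. Lysates in PBS with 1% NP40 run on SDS-PAGE. GRK2 protein detected by western blot with β-actin as loading reference, using ECL chemiluminescence.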

GRK2 [2] = molecular target: T1, GRK2; assay: Second ADPGlo GRK2 Inhibition Assay (Example 3); type: biochemical; conditions: ADP-Glo, 20 μM ATP; read-out: Second ADPGlo Enzymatic GRK2 Assay: IC50 (nM) (Example 3)
Method: Assay: GRK2 (2 nM) was incubated with ATP (20 μM) and GRKtide (1.2 mg/mL) in 11 μL of assay buffer (see above) for 180 min at room temperature. Compounds were dissolved in 100% DMSO, serially diluted 3.16-fold from 100 μM with 10 concentration points and transferred as 100× into assay plate (final compounds concentration in the reaction plate from 1 μM).
Materials: GRK2 was purchased from SignalChem (Cat #A14-10G, Lot #X645-3). Substrate GRKtide was from SignalChem (Cat #G46-58, Lot #R339-6). ADP-Glo Kinase Assay from Promega (Cat #V9102). Assay buffer consisted of 20 mM HEPES (pH7.5), 20 mM MgCl2, 0.01% Tween-20, 0.05 mM DDT. 384-well white plates were from Corning (Cat #4513).
HTS protocol: Add 5.5 μL of 2× substrate-enzyme mix into all columns except of 1-2 and 24 of reaction plate. Spin 15 seconds at 200 g. Transfer 1 ul of compounds from the plate with serial dilutions (384 well plate with 22 uL of compound in columns 3-22/DMSO solution 1-2,23-24) to Dilution plate (384 well plate with 49 uL of buffer with 2×40 μM ATP). After mixing transfer 5.5 ul from Dilution plate to Reaction plate (to 5.5 μL of 2× substrate-enzyme mix). Spin 15 seconds at 200 g and incubate for 180 min at room temperature with sealing. Add 3 μL ADP-Glo reagent to all the wells. Spin 15 seconds at 200 g and incubate for 40 min at room temperature. Add 6 μL Detection solution to all the wells. Incubate for 30 min at room temperature. Read plate using ClarioStar Plus (BMG).
Data Analysis: Data were analyzed in GraphPad Prism 5.0.2. Each HTS plate contains compounds in columns 3-22, controls (enzyme, no compound) in column 23, and blanks (no enzyme) in columns 2. HTS percent inhibition was calculated for each compound from the signal in luminescence units and the mean of the plate controls and the mean of the plate blanks using the following equation: % Inhibition=100*(1-(signal-blank mean)/(control mean-blank mean)).

PAXF1657 KO Clone #4 = assay: 7-day cellular proliferation assay (CellTiter-Glo), PAXF1657 KO Clone #4; type: cell-based; conditions: 168 h, 7-day, read-out: 7-day proliferation assay: IC50 GeoMean (uM) [Cell Line: PAXF1657 KO Clone #4]
Outline: (§1)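 PAXF1657 isogenic lines (GRK2-overexpressing vs empty vector; CRISPR GRK2 knockout vs non-targeting control clones) seeded 500 cells/well in RPMI1640/10% FBS and treated next day with 10-point dilutions, 30 μM-0.0002 μM final, 0.3% DMSO. Media with compound refreshed after 3 days; viability read by CellTiter-Glo luminescence at day 7.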

PAXF1657 EV = assay: 7-day cellular proliferation assay (CellTiter-Glo), PAXF1657 EV; type: cell-based; conditions: 168 h, 7-day, read-out: 7-day proliferation assay: IC50 GeoMean (uM) [Cell Line: PAXF1657 EV]
Outline: as §1

Structure (SMILES) | inhibition at 0.3 µM (GRK2 [1]; PAXF1657 EV, 24 hrs) [%] | inhibition at 1 µM (GRK2 [1]; PAXF1657 EV, 24 hrs) [%] | inhibition at 3 µM (GRK2 [1]; PAXF1657 EV, 24 hrs) [%] | IC50 (GRK2 [2]) [nM] | IC50 (PAXF1657 KO Clone #4) [µM] | IC50 (PAXF1657 EV) [µM] | % GRK2 degradation at 0.03 uM in PAXF1657 EV (24 hrs) (GRK2 [1]; 0.03 uM, PAXF1657 EV, 24 hrs) [%] | % GRK2 degradation at 0.1 uM in PAXF1657 EV (24 hrs) (GRK2 [1]; 0.1 uM, PAXF1657 EV, 24 hrs) [%] | % GRK2 degradation at 10 uM in PAXF1657 EV (24 hrs) (GRK2 [1]; 10 uM, PAXF1657 EV, 24 hrs) [%] | GRK2 degradation, dose dependence (FIGS. 1A-1D) (GRK2 [1]; 24-hour treatment in PAXF1657 cells)
Cn1c(CNc2cccc(C(=O)NCc3cccc(OCCCCCCOCCOCCOCCCC(=O)Nc4cccc5c4CN(C4CCC(=O)NC4=O)C5=O)c3)c2)nnc1-c1ccncn1 (stereo not shown) [Compound D56] | 25 | 52 | 64 | < 100 | > 10 | 1 to 10 |  |  |  | 
Cn1c(CNc2cccc(C(=O)NCc3cccc(OCCCCCCCn4cc(CCCCC(=O)Nc5cccc6c5CN(C5CCC(=O)NC5=O)C6=O)nn4)c3)c2)nnc1-c1ccncn1 (stereo not shown) [Compound D60] | -3 | 13 | 69 | < 100 | > 10 | > 10 |  |  |  | 
Cn1c(CNc2cccc(C(=O)NCc3cccc(OCCCCCCn4cc(CCCCC(=O)Nc5cccc6c5CN(C5CCC(=O)NC5=O)C6=O)nn4)c3)c2)nnc1-c1ccncn1 (stereo not shown) [Compound D62] | 35 | 56 | 75 | < 100 | > 10 | > 10 |  |  |  | 
Cn1c(CNc2cccc(C(=O)NCc3ccc(OCCCCCCOCCOCCOCCCCCC(=O)Nc4cccc5c4CN(C4CCC(=O)NC4=O)C5=O)cc3)c2)nnc1-c1ccncn1 (stereo not shown) [Compound D65] | 36 | 64 | 67 | < 100 | > 10 | < 1 |  |  |  | 
Cn1c(CNc2cccc(C(=O)NCc3cccc(OCCCC(=O)Nc4cccc5c4CN(C4CCC(=O)NC4=O)C5=O)c3)c2)nnc1-c1ccncn1 (stereo not shown) [Compound D70] |  |  |  | < 100 |  |  |  |  |  | 
Cn1c(CNc2cccc(C(=O)NCc3cccc(OCCCCCCOCCOCCOCCCCCC(=O)Nc4cccc5c4CN(C4CCC(=O)NC4=O)C5)c3)c2)nnc1-c1ccncn1 (stereo not shown) [Compound D73] | 48 | 67 | 76 | < 100 | > 10 | 1 to 10 | 15 | 28 | 76 | Dose dependent
Cc1ncsc1-c1ccc(CNC(=O)[C@@H]2C[C@@H](O)CN2C(=O)[C@@H](NC(=O)CCCCCOCCOCCCCCCOc2cccc(CNC(=O)c3cccc(NCc4nnc(-c5ccncn5)n4C)c3)c2)C(C)(C)C)cc1 [Compound D76] |  |  |  | < 100 |  |  |  |  |  | 
Cc1ncsc1-c1ccc(CNC(=O)[C@@H]2C[C@@H](O)CN2C(=O)[C@@H](NC(=O)CCCOCCOCCOCCCCCCOc2cccc(CNC(=O)c3cccc(NCc4nnc(-c5ccncn5)n4C)c3)c2)C(C)(C)C)cc1 [Compound D77] | -4 | -1 | -7 | < 100 | > 10 | < 1 |  |  |  | 
Cc1ncsc1-c1ccc(CNC(=O)[C@@H]2C[C@@H](O)CN2C(=O)[C@@H](NC(=O)CCCCc2cn(CCCCCCCOc3cccc(CNC(=O)c4cccc(NCc5nnc(-c6ccncn6)n5C)c4)c3)nn2)C(C)(C)C)cc1 [Compound D82] | -1 | 28 | 57 | < 100 | > 10 | < 1 |  |  |  | 
Cc1ncsc1-c1ccc(CNC(=O)[C@@H]2C[C@@H](O)CN2C(=O)[C@@H](NC(=O)CCCc2cn(CCCCCCCOc3cccc(CNC(=O)c4cccc(NCc5nnc(-c6ccncn6)n5C)c4)c3)nn2)C(C)(C)C)cc1 [Compound D83] | 2 | 25 | 39 | < 100 | > 10 | 1 to 10 |  |  |  | 
Cc1ncsc1-c1ccc(CNC(=O)[C@@H]2C[C@@H](O)CN2C(=O)[C@@H](NC(=O)COCCCOCCCCCOc2cccc(CNC(=O)c3cccc(NCc4nnc(-c5ccncn5)n4C)c3)c2)C(C)(C)C)cc1 [Compound D85, (2S,4R)-1-((S)-3,3-dimethyl-2-(2-(3-((5-(3-((3-(((4-methyl-5-(pyrimidin-4-yl)-4H-1,2,4-triazol-3-yl)methyl)amino)benzamido)methyl)phenoxy)pentyl)oxy)propoxy)acetamido)butanoyl)-4-hydroxy-N-(4-(4-methylthiazol-5-yl)benzyl)pyrrolidine-2-carboxamide] | 17 | 34 | 30 | < 100 | > 10 | 1 to 10 |  |  |  | 
COc1cc(OCCNC(=O)CCCCCC(=O)N[C@H](C(=O)C2C[C@H](O)C[C@H]2C(=O)NCc2ccc(-c3scnc3C)cc2)C(C)(C)C)ccc1CNC(=O)c1cccc(NCc2nnc(-c3ccncn3)n2C)c1 (stereo partly shown) [Compound D93] |  |  |  | < 100 |  |  |  |  |  | 
COc1cc(OCC(=O)NCCOCCOCCNC(=O)COCC(=O)N[C@H](C(=O)N2C[C@H](O)C[C@H]2C(=O)NCc2ccc(-c3scnc3C)cc2)C(C)(C)C)ccc1CNC(=O)c1cccc(NCc2nnc(-c3ccncn3)n2C)c1 [Compound D94] |  |  |  | 100 to 1000 |  |  |  |  |  | 
COc1cc(OCC(=O)NCCOCCOCC(=O)N[C@H](C(=O)N2C[C@H](O)C[C@H]2C(=O)NCc2ccc(-c3scnc3C)cc2)C(C)(C)C)ccc1CNC(=O)c1cccc(NCc2nnc(-c3ccncn3)n2C)c1 [Compound D95] |  |  |  | < 100 |  |  |  |  |  | 
Cc1ncsc1-c1ccc(CNC(=O)[C@@H]2C[C@@H](O)CN2C(=O)[C@@H](NC(=O)CCCCCOCCCCCOCCCCCCOc2cccc(CNC(=O)c3cccc(NCc4nnc(-c5ccncn5)n4C)c3)c2)C(C)(C)C)cc1 [Compound D98] |  |  |  | < 100 |  |  |  |  |  | 
